Columns and labels:
[1] = tested on: adjuvant-associated biological themes in LV, SP, LN
How it was run: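 Per-mouse whole-organ transcriptomes; genes with eij/ei(c)>2.0 tested for theme enrichment via TargetMine (GO, KEGG, Reactome, others), Fisher's exact test, Holm-Bonferroni correction. Themes shared by all three mice kept at p<0.05, using the smallest p. Score per adjuvant-associated term = Σ−log(p) of matching themes.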

liver = details: mouse, in vivo, ip
Protocol: After 3 hours/6 hours, blood and liver were collected on day 1, day 2, day 3, and day 5. Hematoxylin and eosin staining was applied to the collected liver and histologically analyzed (FIG. 20).

For “heptanoyl-γ-D-glutamyl-(L)-meso-diaminopimelyl-(D)-alanine [FK565]”, the “IFN alpha, GO annotation line 1 of 5” value ([1]; LV, ID) was 4.54, the “IFN alpha, GO annotation line 2 of 5” value ([1]; LV, ID) was 0 and the “IFN alpha: cellular response to interferon-alpha” value ([1]; LV, ID) was 0. The “IFN alpha: positive regulation of interferon-alpha production” value ([1]; LV, ID) was 0, the “IFN alpha: regulation of interferon-alpha production” value ([1]; LV, ID) was 0 and the “IFN beta: cellular response to interferon-beta” value ([1]; LV, ID) was 9.65. The “IFN beta: interferon-beta production” value ([1]; LV, ID) was 0, the “IFN beta: positive regulation of interferon-beta production” value ([1]; LV, ID) was 0 and the “IFN beta: regulation of interferon-beta production” value ([1]; LV, ID) was 0. For the same substance, the “IFN beta: response to interferon-beta” value ([1]; LV, ID) was 17.3, the “IFN gamma: cellular response to interferon-gamma” value ([1]; LV, ID) was 0 and the “IFN gamma: interferon-gamma production” value ([1]; LV, ID) was 0. For the same substance, the “IFN gamma: regulation of interferon-gamma production” value ([1]; LV, ID) was 0, the “IFN gamma: response to interferon-gamma” value ([1]; LV, ID) was 11 and the “NF-kappa B signaling pathway, GO annotation line 1 of 4” value ([1]; LV, ID) was 19.8. For the same substance, the “NF-kappa B signaling pathway, GO annotation line 3 of 4” value ([1]; LV, ID) was 3.05, the “NF-kappa B signaling pathway, GO annotation line 4 of 4” value ([1]; LV, ID) was 5.82 and the TNF signaling pathway ([1]; LV, ID) was 30.9. For the same substance, the “adaptive immune response, GO annotation line 1 of 5” value ([1]; LV, ID) was 8.99, the “adaptive immune response, GO annotation line 2 of 5” value ([1]; LV, ID) was 8.71 and the “adaptive immune response, GO annotation line 3 of 5” value ([1]; LV, ID) was 3.56. For the same substance, the “adaptive immune response, GO annotation line 4 of 5” value ([1]; LV, ID) was 0, the “adaptive immune response, GO annotation line 5 of 5” value ([1]; LV, ID) was 0 and the “apoptosis, GO annotation line 1 of 8” value ([1]; LV, ID) was 15.2. The “apoptosis, GO annotation line 2 of 8” value ([1]; LV, ID) was 13, the “apoptosis, GO annotation line 3 of 8” value ([1]; LV, ID) was 19.9 and the “apoptosis, GO annotation line 4 of 8” value ([1]; LV, ID) was 13.9. For the same substance, the “apoptosis, GO annotation line 5 of 8” value ([1]; LV, ID) was 6.58, the “apoptosis, GO annotation line 6 of 8” value ([1]; LV, ID) was 13.2 and the “apoptosis, GO annotation line 7 of 8” value ([1]; LV, ID) was 0. The “apoptosis, GO annotation line 8 of 8” value ([1]; LV, ID) was 8.33, the “cell death, GO annotation line 1 of 9” value ([1]; LV, ID) was 21.7 and the “cell death, GO annotation line 2 of 9” value ([1]; LV, ID) was 16.4. The “cell death, GO annotation line 3 of 9” value ([1]; LV, ID) was 15.7, the “cell death, GO annotation line 4 of 9” value ([1]; LV, ID) was 14 and the “cell death, GO annotation line 5 of 9” value ([1]; LV, ID) was 12.9. For the same substance, the “cell death, GO annotation line 6 of 9” value ([1]; LV, ID) was 7.1, the “cell death, GO annotation line 7 of 9” value ([1]; LV, ID) was 7.29 and the “cell death, GO annotation line 8 of 9” value ([1]; LV, ID) was 0. The “cell death, GO annotation line 9 of 9” value ([1]; LV, ID) was 0, the “chemokine, GO annotation line 1 of 4” value ([1]; LV, ID) was 0 and the “chemokine, GO annotation line 2 of 4” value ([1]; LV, ID) was 0. For the same substance, the “chemokine, GO annotation line 3 of 4” value ([1]; LV, ID) was 0, the “chemokine, GO annotation line 4 of 4” value ([1]; LV, ID) was 0 and the “chemotaxis, GO annotation line 1 of 11” value ([1]; LV, ID) was 16.1. For the same substance, the “chemotaxis, GO annotation line 2 of 11” value ([1]; LV, ID) was 0, the “chemotaxis, GO annotation line 4 of 11” value ([1]; LV, ID) was 5.48 and the “chemotaxis, GO annotation line 5 of 11” value ([1]; LV, ID) was 0. The “chemotaxis, GO annotation line 6 of 11” value ([1]; LV, ID) was 5.83, the “chemotaxis, GO annotation line 7 of 11” value ([1]; LV, ID) was 6.49 and the “chemotaxis, GO annotation line 8 of 11” value ([1]; LV, ID) was 0. For the same substance, the “chemotaxis, GO annotation line 9 of 11” value ([1]; LV, ID) was 0, the “chemotaxis, GO annotation line 10 of 11” value ([1]; LV, ID) was 0 and the “chemotaxis, GO annotation line 11 of 11” value ([1]; LV, ID) was 0. The “cytokine, GO annotation line 1 of 17” value ([1]; LV, ID) was 37.8, the “cytokine, GO annotation line 2 of 17” value ([1]; LV, ID) was 32.6 and the “cytokine, GO annotation line 3 of 17” value ([1]; LV, ID) was 23.6. For the same substance, the “cytokine, GO annotation line 4 of 17” value ([1]; LV, ID) was 17.1, the “cytokine, GO annotation line 5 of 17” value ([1]; LV, ID) was 30.2 and the “cytokine, GO annotation line 6 of 17” value ([1]; LV, ID) was 27.5. For the same substance, the “cytokine, GO annotation line 7 of 17” value ([1]; LV, ID) was 8.69, the “cytokine, GO annotation line 8 of 17” value ([1]; LV, ID) was 16.2 and the “cytokine, GO annotation line 9 of 17” value ([1]; LV, ID) was 17. The “cytokine, GO annotation line 10 of 17” value ([1]; LV, ID) was 18.6, the “cytokine, GO annotation line 11 of 17” value ([1]; LV, ID) was 3.46 and the “cytokine, GO annotation line 12 of 17” value ([1]; LV, ID) was 14. The “cytokine, GO annotation line 13 of 17” value ([1]; LV, ID) was 7.57, the “cytokine, GO annotation line 14 of 17” value ([1]; LV, ID) was 7.13 and the “cytokine, GO annotation line 15 of 17” value ([1]; LV, ID) was 10.1. For the same substance, the “cytokine, GO annotation line 16 of 17” value ([1]; LV, ID) was 0, the “cytokine, GO annotation line 17 of 17” value ([1]; LV, ID) was 0 and the “defense response, GO annotation line 1 of 11” value ([1]; LV, ID) was 57.8. For the same substance, the “defense response, GO annotation line 2 of 11” value ([1]; LV, ID) was 29.6, the “defense response, GO annotation line 3 of 11” value ([1]; LV, ID) was 24.9 and the “defense response, GO annotation line 4 of 11” value ([1]; LV, ID) was 18.4. For the same substance, the “defense response, GO annotation line 5 of 11” value ([1]; LV, ID) was 5.98, the “defense response, GO annotation line 6 of 11” value ([1]; LV, ID) was 6.22 and the “defense response, GO annotation line 7 of 11” value ([1]; LV, ID) was 0. For the same substance, the “defense response, GO annotation line 8 of 11” value ([1]; LV, ID) was 0, the “defense response, GO annotation line 9 of 11” value ([1]; LV, ID) was 0 and the “defense response, GO annotation line 10 of 11” value ([1]; LV, ID) was 0. The “defense response, GO annotation line 11 of 11” value ([1]; LV, ID) was 0, the “immune response, GO annotation line 1 of 8” value ([1]; LV, ID) was 46.1 and the “immune response, GO annotation line 2 of 8” value ([1]; LV, ID) was 20.8. The “immune response, GO annotation line 3 of 8” value ([1]; LV, ID) was 19.5, the “immune response, GO annotation line 4 of 8” value ([1]; LV, ID) was 11.9 and the “immune response, GO annotation line 5 of 8” value ([1]; LV, ID) was 9.97. For the same substance, the “immune response, GO annotation line 6 of 8” value ([1]; LV, ID) was 12.1, the “immune response, GO annotation line 7 of 8” value ([1]; LV, ID) was 0 and the “immune response, GO annotation line 8 of 8” value ([1]; LV, ID) was 0. For the same substance, the “inflammatory response, GO annotation line 1 of 5” value ([1]; LV, ID) was 29.8, the “inflammatory response, GO annotation line 2 of 5” value ([1]; LV, ID) was 11.4 and the “inflammatory response, GO annotation line 3 of 5” value ([1]; LV, ID) was 3.69. For the same substance, the “inflammatory response, GO annotation line 4 of 5” value ([1]; LV, ID) was 0, the “inflammatory response, GO annotation line 5 of 5” value ([1]; LV, ID) was 0 and the “innate immune response, GO annotation line 1 of 6” value ([1]; LV, ID) was 33.7. The “innate immune response, GO annotation line 2 of 6” value ([1]; LV, ID) was 19.7, the “innate immune response, GO annotation line 3 of 6” value ([1]; LV, ID) was 16.7 and the “innate immune response, GO annotation line 4 of 6” value ([1]; LV, ID) was 16.2. The “innate immune response, GO annotation line 5 of 6” value ([1]; LV, ID) was 14.3, the “innate immune response, GO annotation line 6 of 6” value ([1]; LV, ID) was 0 and the “interleukin-6: interleukin-6 production” value ([1]; LV, ID) was 3.6. For the same substance, the “interleukin-6: positive regulation of interleukin-6 production” value ([1]; LV, ID) was 0, the “interleukin-6: regulation of interleukin-6 production” value ([1]; LV, ID) was 4.17 and the “interleukin-12: interleukin-12 production” value ([1]; LV, ID) was 8.76. The “interleukin-12: positive regulation of interleukin-12 production” value ([1]; LV, ID) was 3.24, the “interleukin-12: regulation of interleukin-12 production” value ([1]; LV, ID) was 9.49 and the “migration, GO annotation line 1 of 10” value ([1]; LV, ID) was 13.6. For the same substance, the “migration, GO annotation line 2 of 10” value ([1]; LV, ID) was 8.98, the “migration, GO annotation line 3 of 10” value ([1]; LV, ID) was 14.2 and the “migration, GO annotation line 4 of 10” value ([1]; LV, ID) was 7.86. The “migration, GO annotation line 5 of 10” value ([1]; LV, ID) was 7.57, the “migration, GO annotation line 6 of 10” value ([1]; LV, ID) was 6.55 and the “migration, GO annotation line 7 of 10” value ([1]; LV, ID) was 6.19. The “migration, GO annotation line 8 of 10” value ([1]; LV, ID) was 4.49, the “migration, GO annotation line 9 of 10” value ([1]; LV, ID) was 0 and the “migration, GO annotation line 10 of 10” value ([1]; LV, ID) was 0. The “stress, GO annotation line 1 of 3” value ([1]; LV, ID) was 57.7, the “stress, GO annotation line 2 of 3” value ([1]; LV, ID) was 28.5 and the “stress, GO annotation line 3 of 3” value ([1]; LV, ID) was 9.02. For the same substance, the “wounding, GO annotation line 1 of 3” value ([1]; LV, ID) was 12.1, the “wounding, GO annotation line 2 of 3” value ([1]; LV, ID) was 12.8 and the “wounding, GO annotation line 3 of 3” value ([1]; LV, ID) was 9.45. For the same substance, the “NF-kappa B signaling pathway, GO annotation line 2 of 4” value ([1]; mouse, in vivo) was 12.9, the “chemotaxis, GO annotation line 3 of 11” value ([1]; mouse, in vivo) was 15.7 and the “histological finding in liver (hematoxylin and eosin)” value (liver) was “liver damage”.
